One block for each molecule: values may come before it.
What was measured:
[1] = tested on: cerebral ischemia model induced by bilateral common carotid artery occlusion; experiment: Brain ischemia model, SOD, MDA and GSH in brain homogenate; format: in vivo, Wistar rats; conditions: rat brain homogenate, 1 mg/kg (calculated as ibuprofen) tail vein; for MDA level: relative to sham group
[2] = In vitro chemical stability in phosphate buffers; format: physicochemical; conditions: 37 °C
Description: The in vitro chemical stability of prodrugs was investigated by incubating the prodrugs in pH 2.5, 5.0, 7.4 and 8.0 phosphate buffers, respectively. Briefly, 1 ml of the prodrugs methanol solution (250 μg/ml) was added into 4 ml different buffer separately. The entire system was kept at 37 ± 0.5 °C with continuous shaking at 100 rpm/min. 200 μl medium samples were taken at the following time points: 0, 0.5, 1, 2, 3, 6, 12, and 24 h, and then replaced by fresh medium. The samples were analyzed by HPLC (Shimadzu). The analysis was accomplished on a SinoChrom ODS-C18 column (Dalian, China) (200 × 4.6 mm, […]), thermostated at 35 °C. The mobile phase was composed of methanol/water (73:27), and the pH was adjusted to 2.86 with 10% phosphoric acid. The UV […] was 225 nm and the flow rate was set at 1.0 ml/min with a 20 μl injection volume.
These solutions were maintained at 37 °C, and the aliquots were withdrawn in predetermined time intervals, then the concentrations of the prodrugs were determined by HPLC method.

[3] = tested on: cerebral ischemia model induced by bilateral common carotid artery occlusion; experiment: Brain ischemia model, TTC staining of brain sections; format: in vivo, Wistar rats; conditions: rats, 1 mg/kg (calculated as ibuprofen) tail vein, 30 min before 1.5 h ligation
PC12 cells [4] = experiment: Neuroprotective effect against H2O2-induced cytotoxicity, MTT cell viability; format: cell-based; conditions: Rattus norvegicus, PC-12, 10 μM pretreatment 4 h, then H2O2 (1 μM) 2 h, read-out: Cell viability (survival rate compared to control)
Description: (§1) The in vitro neurotoxicity model was established using H2O2 to induce oxidative stress and injury in PC12 cells.
Briefly, PC12 cells were seeded in 96-well plates at the density of 6 × 10^4 cell/well and incubated at 37 °C for 24 h. […] After the treatment, the cells were observed under inverted phase contrast microscopy and cell images were recorded. Subsequently, the cells viability was assessed by MTT assay using a microplate reader.

PC12 cells [5] = experiment: SOD activity after H2O2 in vitro (colorimetry kit); format: cell-based; conditions: 10 μM pretreatment 4 h, then H2O2 (1 μM) 2 h
Description: as §1
The ROS assay kit (S0033; Beyotime Institute of Biotechnology, Jiangsu, China) in DCFH-DA method was used to determine the intracellular ROS generation. PC12 cells were seeded in six-well plates at a density of 5 × 10^5 cells/well and incubated at 37 °C for 24 h. […] Then trypsin–EDTA was used to harvest the cells, which were washed three times with PBS afterward, and finally stained with 2′,7′-dichlorofluorescein diacetate (DCFH-DA, 10 μM) and incubated for 20 min at 37 °C in the dark. After centrifugation (2000 rpm, 3 min), the cell pellet was washed three times with PBS, resuspended in PBS before flow cytometer analysis (Ex 488 nm and Em 525 nm). SOD is an index of superoxide level which neutralizes free oxygen radicals, usually being tested along with ROS level showing oxidative stress. In brief, after harvesting, the cells were resuspended in PBS and lysed by Ultrasonic cell grinder (SCIENTZ-II D, Zhejiang, China) to obtain the cell lysis solution. Then, the SOD activity was evaluated using colorimetry kits (A001; Nanjing Jiancheng Bioengineering Institute, Nanjing, China). Untreated cells were used as the control.

[6] = Metabolic stability in mice brain homogenate; format: in vitro ADME; conditions: 37 °C
Description: (§2) The preliminary metabolic stability of prodrugs was studied by incubating in plasma and brain homogenate, respectively. 1 ml of the prodrugs methanol solution (250 μM) was added into 4 ml plasma or brain homogenate. Then, the entire system was kept at 37 ± 0.5 °C with continuous shaking at 100 rpm/min. 200 μl samples were taken at the following time points: 0, 0.5, 1, 2, 3, 6, 12, and 24 h, and then replaced by plasma or brain homogenate. The internal standard (naproxen, 10 μl, 30 μg/ml) was added to each sample followed by 200 μl acetonitrile.
(§3) The metabolic stability of the prodrugs was studied in the mice plasma and brain homogenate at 37 °C. The Kdisapp and t1/2 of the prodrugs in plasma and brain homogenate were calculated by linear regression of the peak area against time (Table 2).

[7] = Distribution in brain in mice, brain homogenate; format: in vivo, Kunming mice; conditions: for AUC(0–t): brain homogenate, ibuprofen after hydrolysis of sample, 10 mg/kg (calculated as ibuprofen) tail vein
Description: Kunming mice weighing 20–22 g were purchased from DOSSY Experimental Animal Center of Chengdu (Sichuan, China). All animal procedures for this study were approved by the Experiment Animal Administrative Committee of Sichuan University (P.R. China).
At appropriate time interval (5, 10, 15, 30, 45, 60, 90, 120, 240 and 480 min), blood was collected from the eye socket of mouse into a tube containing heparin, and centrifuged at 5000 rpm for 5 min. The supernatant was collected as plasma sample. The animals were killed by cervical dislocation, and the brain tissue was removed, and then washed with saline for three times to remove the remained blood and rolled over on the filter paper to remove the main vessel. All the brain tissues were homogenized with twice amount of saline. An aliquot of 10 μl of internal standard (naproxen, 30 μg/ml) was added into 200 μl plasma or 200 μl brain homogenate, the mixture was vortexed with 200 μl methanol for 5 min. Then, an aliquot of 50 μl of 6 M NaOH aqueous solution was added to the spiking mixture. […] Followed by vortexing for 5 min, 0.6 ml acetonitrile was added and the mixture was centrifuged at 15,000 rpm for 10 min. The separated supernatant was evaporated to dryness at 40 °C under air flow. The residues were redissolved in 50 μl methanol and centrifuged at 15,000 rpm for 10 min, and then 20 μl of the supernatant was injected into the HPLC system for analysis.
The area under the curve (AUC0–t) and the maximal concentration (Cmax) were calculated by Data and Statistics (DAS, Shanghai, China). The statistical analysis of the samples was performed by using a Student’s t-test with p values < .05 as the minimal level of significance. The relative uptake efficiency (RE) and concentration efficiency (CE) were calculated to evaluate the brain-targeting property of prodrugs. The values of REbrain and CEbrain are defined as follows: RE = (AUC 0) Pro/(AUC 0) Ibu, CE=(Cmax)Pro/(Cmax)Ibu.

[8] = Metabolic stability in mice plasma; format: in vitro ADME; conditions: 37 °C
Description: as §2, §3

[9] = Kunming, mouse, iv, brain, analyte intact prodrug, before hydrolysis, 10 mg/kg tail vein
[10] = brain, analyte ibuprofen (dosed or released), before hydrolysis, 10 mg/kg tail vein

Kdisapp ([2]; pH 2.5 phosphate buffer): 1.07e-05 s⁻¹
half-life at 50 μg/ml ([2]; pH 2.5 phosphate buffer): 18.1 h
Kdisapp ([2]; pH 5.0 phosphate buffer): 3.86e-06 s⁻¹
half-life at 50 μg/ml ([2]; pH 5.0 phosphate buffer): 49.9 h
Kdisapp ([2]; pH 7.4 phosphate buffer): 1.5e-05 s⁻¹
half-life at 50 μg/ml ([2]; pH 7.4 phosphate buffer): 12.8 h
Kdisapp ([2]; pH 8.0 phosphate buffer): 1.74e-05 s⁻¹
half-life at 50 μg/ml ([2]; pH 8.0 phosphate buffer): 11.1 h
Kdisapp [6]: 0.000542 s⁻¹
half-life at 50 μM ([6]; mouse): 0.355 h
Cmax [7, 9]: 26400 ± 1970 ng/g
MRT [7, 9]: 2.73 h
Tmax [7, 9]: 0.25 h
AUC(0–t) [7]: 7308.11 ± 447.86 µg·min/g
AUC(0-t) [7, 10]: 3393.98 ± 257.39 µg·min/g
AUC(0-t) ([7]; brain, analyte intact prodrug, before hydrolysis, 10 mg/kg tail vein): 3459.18 ± 223.76 µg·min/g
Kdisapp [8]: 0.000187 s⁻¹
half-life at 50 μM ([8]; mouse): 1.03 h
Compound: CC(C)Cc1ccc(C(C)C(=O)OC(COC(=O)CCC(=O)OCC2OC(O)C(O)C(O)C2O)C2OC(=O)C(O)=C2O)cc1 (centres unmarked) [Glu-Vc-Ibu]
SOD activity [1]: significant raise compared with saline group or ibuprofen group
MDA level [1]: 110.96%
TTC red-staining rate compared with the sham group [3]: 87.95%
viability at 10 µM (PC12 cells [4]): 89.9%
SOD activity (PC12 cells [5]): markedly relieved the damage compared with others

AUC(0–t) [7]: 2782.42 ± 176.55 µg·min/g
AUC(0-t) [7, 10]: 2782.42 ± 176.55 µg·min/g
Compound: CC(C)Cc1ccc(C(C)C(=O)O)cc1 (centres unmarked) [Ibuprofen, reference compound]
SOD activity [1]: did not obviously reverse the decrease of SOD activity
MDA level [1]: 192.42%
TTC red-staining rate compared with the sham group [3]: 48.09%
viability at 10 µM (PC12 cells [4]): 74.1%

Source: PMC6058731, “Dual-targeting for brain-specific drug delivery: synthesis and biological evaluation” (Drug Delivery, 2018)
